PubChem BioAssay (NCI)
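48-hour exposure; five concentrations; linearly interpolated endpoints. GI50 is the concentration that inhibits growth by half. TGI marks complete inhibition of growth.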

Experiments:
Assay in all cases: growth of human tumour cells (NCI), 48 h
OVCAR-8 ovarian = tested on: OVCAR-8 ovarian
CCRF-CEM leukemia = tested on: CCRF-CEM leukemia
MDA-MB-435 = tested on: MDA-MB-435
HCT-116 colon = tested on: HCT-116 colon
SK-OV-3 ovarian = tested on: SK-OV-3 ovarian
T-47D breast = tested on: T-47D breast
SK-MEL-5 melanoma = tested on: SK-MEL-5 melanoma
HOP-92 NSCLC = tested on: HOP-92 NSCLC
NCI-H460 lung = tested on: NCI-H460 lung
MDA-MB-231 breast = tested on: MDA-MB-231 breast

Row | SMILES | TGI (OVCAR-8 ovarian) [µM] | TGI (CCRF-CEM leukemia) [µM] | TGI (MDA-MB-435) [µM] | TGI (HCT-116 colon) [µM] | TGI (SK-OV-3 ovarian) [µM] | TGI (T-47D breast) [µM] | TGI (SK-MEL-5 melanoma) [µM] | TGI (HOP-92 NSCLC) [µM] | TGI (NCI-H460 lung) [µM] | TGI (MDA-MB-231 breast) [µM] | GI50 (CCRF-CEM leukemia) [µM] | GI50 (HOP-92 NSCLC) [µM]
1 | CC(C(=O)COCc1ccccc1)P1(=O)OC(C)(C)CN1C(C)(C)C (stereo not given) | > 100 | > 100 | > 100 | > 100 | > 100 | > 100 | > 100 | > 100 | > 100 | – | – | –
2 | CN1CCN(Cc2cc3c(nn2)-c2ccccc2C3=O)CC1 | > 100 | > 100 | 50.2 | > 100 | > 100 | > 100 | 35.1 | > 100 | > 100 | – | – | –
3 | O=C(NN1C(=O)CS(=O)(=O)C1c1ccc(C(F)(F)F)cc1)c1ccncc1 (stereo not given) | – | > 100 | – | > 100 | > 100 | – | > 100 | > 100 | > 100 | – | – | –
4 | COc1cccc2c1OC(c1cccc3ccccc13)C([N+](=O)[O-])=C2 (stereo not given) | 20.9 | 2.02 | 3.02 | 2.45 | 9.89 | 5.69 | 2.96 | – | 3.77 | 5.01 | – | –
5 | C=C(C)[C@H]1C2=CC(C(=O)OC)=C(C[C@H](C(=C)C)[C@@H](O)[C@@H](O)C3=C[C@H]1OC3=O)O2 | > 100 | > 100 | > 100 | > 100 | > 100 | > 100 | > 100 | > 100 | – | > 100 | – | –
6 | C=C(CN(C)C)C(=O)c1ccc(C(=O)C(=C)CN(C)C)cc1 | > 100 | > 100 | – | > 100 | > 100 | – | > 100 | > 100 | > 100 | – | – | –
7 | [N-]=[N+]=CC(=O)OC(CCl)CCl | – | – | > 100 | > 100 | > 100 | – | > 100 | > 100 | > 100 | > 100 | – | –
8 | CCN(CC)c1ccc(/C=C/c2ccnc3ccccc23)cc1 | – | > 100 | > 100 | > 100 | > 100 | > 100 | > 100 | > 100 | > 100 | > 100 | – | –
9 | O=C1C(=Nc2ccc(Nc3ccccc3)cc2)Oc2ccccc21 | 6.07 | 4.92 | 3.45 | 3.18 | 23 | 9.57 | 16.1 | – | 30.5 | 4.51 | – | –
10 | C=CC1(C)CC(=O)C2(O)C(C)(O1)C(OC(C)=O)C(O)C1C(C)(C)CCC(O)C12C (stereo not given) | > 150 | > 150 | – | > 150 | > 120 | – | > 102 | > 150 | > 150 | – | > 65.8 | 20.3
11 | CNc1[nH]c(=S)nc2sc3c(c12)CCCC3 | > 75 | – | > 75 | > 75 | – | > 75 | > 75 | – | – | > 75 | – | –
12 | CC12c3c4ccc(C=O)c3Oc3ccc(C=O)c(c31)Oc1ccc(C=O)c(c12)O4 | > 25 | > 25 | > 25 | > 25 | > 25 | > 25 | – | > 25 | > 25 | > 25 | – | –
13 | O=C(OCC(Cl)(Cl)Cl)N1CC[C@H](C2CCCCC2)C1 | – | 36.1 | – | 31.6 | 31.8 | 35.1 | 30 | – | 35.1 | 96.2 | – | –
